According to PubChem BioAssay (NCI):
Where “and” joins values, the source holds several entries; their conditions need not be identical. Identical values can stand only once.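 The compound was tested at five concentrations on cells cultured in 96-well plates, with a 48-hour exposure period. The concentration for 50% growth inhibition is given as GI50. TGI: concentration producing complete growth inhibition.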 *1 amine or outer side, *2 acyl side, *3 side chain or, on linkers, in order; H or OH if unused. Where a SMILES comes first, the peptide text is derived from it. Bridges are numbered along the chain shown (N, C = ends). Roman numbers before positions name the chains, in order. [ ]: non-standard residue; d: D form. Actinocin(9to1) = Cc1c2oc3c(C)ccc(C(=O)[*:1])c3nc-2c(C(=O)[*:2])c(N)c1=O; NMeT = CN[CH](C(=O)O)[CH](C)O; Sar = CNCC(=O)O

What was measured:
Experiment in all cases: inhibition of tumour cell growth, NCI panel, 48 h
HT29 colon = test system: HT29 colon
COLO 205 colon = test system: COLO 205 colon
OVCAR-8 ovarian = test system: OVCAR-8 ovarian
SF-539 CNS = test system: SF-539 CNS
MCF7 breast = test system: MCF7 breast
HCT-116 colon = test system: HCT-116 colon
U251 CNS = test system: U251 CNS
UACC-257 melanoma = test system: UACC-257 melanoma
NCI-H226 lung = test system: NCI-H226 lung
HOP-62 NSCLC = test system: HOP-62 NSCLC

| Compound | GI50 (HT29 colon) | TGI (HT29 colon) [µM] | GI50 (COLO 205 colon) | TGI (COLO 205 colon) [µM] | GI50 (OVCAR-8 ovarian) [µM] | TGI (OVCAR-8 ovarian) [µM] | GI50 (SF-539 CNS) [µM] | TGI (SF-539 CNS) | GI50 (MCF7 breast) [µM] | TGI (MCF7 breast) [µM] | GI50 (HCT-116 colon) [µM] | TGI (HCT-116 colon) [µM] | GI50 (U251 CNS) [µM] | TGI (U251 CNS) | GI50 (UACC-257 melanoma) | GI50 (NCI-H226 lung) | TGI (NCI-H226 lung) | GI50 (HOP-62 NSCLC) [µM] | TGI (HOP-62 NSCLC) [µM] | TGI (UACC-257 melanoma) |
| --- | --- | --- | --- | --- | --- | --- | --- | --- | --- | --- | --- | --- | --- | --- | --- | --- | --- | --- | --- | --- |
| O=C1CC(=O)N(C(=O)c2nn(-c3ccc(Cl)cc3)cc2O)N1 | 0.585 µM | > 50.4 | 0.748 µM | 3.99 | 0.636 | > 100 | 0.371 | > 63 µM | 1.24 | > 100 | 0.34 | > 100 | 0.147 | > 100 µM | 0.8 µM | 0.724 µM | > 96.6 µM | 0.5 | > 100 | – |
| COc1cc2c(cc1OC)-c1ccc3cc4c(cc3c1N(CCCn1ccnc1)C2)OCO4 | 3.22 µM | 30.7 | 1.49 µM | 6.12 | 5.49 | 43.6 | 2.11 | 7.36 µM | 0.364 | 74.1 | 2.93 | 16.2 | 1.02 | 3.97 µM | 5.9 µM | 5.52 µM | 24.8 µM | 2.03 | 13.6 | 23.3 µM |
| O=C(O)CCCSc1ccccc1 | – | > 100 | – | > 100 | – | > 100 | – | > 100 µM | – | > 100 | – | > 100 | – | > 100 µM | – | – | > 100 µM | – | > 100 | > 100 µM |
| Cc1c2oc3c(C)ccc(C(=O)NC4C(=O)NC(C(C)C)C(=O)N5CCCC5C(=O)N(C)CC(=O)N(C)C(C(C)O)C(=O)OC4C)c3nc-2c(C(=O)NC2C(=O)NC(C(C)C)C(=O)N3CCCC3C(=O)N(C)CC(=O)N(C)C(C(C)O)C(=O)OC2C)c(N)c1=O (configuration not stated) (I: TVP[Sar][NMeT] / II: TVP[Sar][NMeT]; ester I:1-I:C, II:1-II:C; linker I:N-II:N via Actinocin(9to1); configuration not given here) | 3.17 µM and 0.724 µM | > 100 | 2.22 µM and 0.801 µM | > 36.8 | – | > 43.8 | – | 18 µM and > 1 µM | – | > 1 | – | > 100 | – | 7.27 µM and > 1 µM | 2.09 µM and > 1 µM | 1.47 µM and 0.618 µM | 26.8 µM and > 1 µM | – | > 1 | 25.1 µM and > 1 µM |
| COc1ccc(-c2oc(=O)ccc2-c2cc(OC)c(OC)c(OC)c2)cc1O | 3.97 µM | > 47.3 | 6.78 µM | 36 | 4.34 | > 100 | 1.37 | > 29.9 µM | 0.421 | > 53.6 | 0.736 | > 86.6 | 1.1 | > 100 µM | 9.87 µM | 9.81 µM | > 96 µM | 5.37 | > 100 | > 100 µM |
| C=C1C(C2(C)C(OC(C)=O)CC(=O)OC(C)(COC(C)=O)C2CC(=O)OC)C(OC=O)C(OC(=O)C(O)C(C)CC)C2(C)C(c3ccoc3)CC(=O)C12O (configuration not stated) | – | > 100 | – | > 100 | – | > 100 | – | > 31.6 µM | – | > 100 | – | > 100 | – | > 100 µM | – | – | > 100 µM | – | > 100 | > 100 µM |
| CC(=C/C=C/C=C(C)\C=C\C=C(\C)C(=O)O)/C=C/C=C(/C)C(=O)O | – | > 100 | – | > 100 | – | > 100 | – | > 100 µM | – | > 100 | – | > 100 | – | > 100 µM | – | – | > 100 µM | – | > 100 | > 100 µM |
| CS(=O)(=O)CCNCc1ccc(-c2ccc3ncnc(Nc4ccc(OCc5ccccc5)c(Br)c4)c3c2)o1 | 4.72 µM | 10.1 | 4.69 µM | 9.75 | 9.62 | > 25 | 5.41 | 13.2 µM | 7.07 | 24.6 | 5.26 | 11.8 | 7.12 | > 23 µM | 4.77 µM | 10.1 µM | > 25 µM | 11.2 | > 25 | 9.3 µM |
| COc1ccc(-c2cc(-c3ccc(Cl)cc3)nc(SCCCC(=O)NO)n2)cc1 | 1.41 µM | 3.77 | 1.69 µM | 4.4 | 0.427 | > 100 | 1.36 | 3.78 µM | 1.81 | 7.43 | 0.563 | > 100 | 0.753 | > 22.5 µM | 2.31 µM | 1.49 µM | 6.89 µM | 0.902 | 6.66 | 10.4 µM |
| CC(=O)N1C/C(=C/c2ccc(Cl)cc2)C(=O)/C(=C/c2ccc(Cl)cc2)C1 | 0.254 µM | 0.619 | 0.756 µM | 2.01 | 0.463 | 2.17 | 0.785 | 2.03 µM | 0.292 | 1.13 | 0.202 | 0.465 | 0.337 | 1.18 µM | 1.52 µM | 1.17 µM | 3.49 µM | 0.516 | 1.25 | 2.97 µM |
| C=C1C(=O)O[C@H]2[C@H]1CC/C(COC(=O)C(=O)c1cn(C)c3ccc(Cl)cc13)=C\CC[C@@]1(C)O[C@@H]21 | 0.339 µM | 1.19 | 1.96 µM | 4.2 | 2.1 | 10.1 | 1.66 | 3.36 µM | 0.391 | 3.19 | 1.24 | 2.69 | 1.79 | 3.38 µM | 1.65 µM | 1.46 µM | 3.08 µM | 1.33 | 3.02 | 3.55 µM |
| Cc1ccc(Cc2cnc(NC(=O)/C=C/c3cccc(C)c3)s2)cc1 | 0.135 µM | 5.85 | 0.355 µM | > 100 | 0.447 | > 44.5 | 0.149 | 0.9 µM | 0.103 | > 100 | 0.0746 | 2.4 | 0.144 | 4.97 µM | > 42.3 µM | 0.608 µM | – | 0.238 | 9.3 | > 100 µM |
| Cc1nc2sc(C(=O)Nc3cccc4ccccc34)c(N)c2cc1C(O)c1ccccc1 (configuration not stated) | 0.038 µM | 14.1 | 0.349 µM | 2.28 | 0.101 | 71.2 | 0.0341 | 0.29 µM | 0.0373 | 13.4 | 0.0439 | 10.9 | 0.0499 | 13.5 µM | 1.5 µM | 1.19 µM | 28.4 µM | 0.081 | 19.1 | 26.4 µM |
